From patent US20150259344A1, “IMIDAZOLE DERIVATIVE” (DAINIPPON SUMITOMO PHARMA CO., LTD., priority 2012, published 2015) come the findings set out here.

One experiment deals with T1, human α7 nAChR (Homo sapiens, UniProt P36544).
T1 construct: expressed in transfected cells
T1 sequence (P36544 23-502): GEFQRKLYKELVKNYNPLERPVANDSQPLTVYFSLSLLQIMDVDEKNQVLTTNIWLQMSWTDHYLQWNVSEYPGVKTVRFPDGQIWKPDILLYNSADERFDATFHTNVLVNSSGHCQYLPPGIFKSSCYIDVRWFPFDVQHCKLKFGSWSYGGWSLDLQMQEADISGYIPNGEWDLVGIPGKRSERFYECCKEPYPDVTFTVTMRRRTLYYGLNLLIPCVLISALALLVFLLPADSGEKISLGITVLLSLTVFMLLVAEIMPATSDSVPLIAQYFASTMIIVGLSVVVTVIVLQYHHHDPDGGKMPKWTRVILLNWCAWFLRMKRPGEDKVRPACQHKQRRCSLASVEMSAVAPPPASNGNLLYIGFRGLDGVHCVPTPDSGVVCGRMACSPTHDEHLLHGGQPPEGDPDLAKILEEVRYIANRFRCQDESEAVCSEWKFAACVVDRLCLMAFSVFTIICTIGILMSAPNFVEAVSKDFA
Kind of experiment: Evaluation of PAM activity with human α7 nACh receptor stably expressing cells (aequorin luminescence, FDSS7000). The note with it: 1 μM test compound (values marked *, footnote of Table 25); ACh at EC20; ratio of RLU (Max-Min) to control wells; read-out: α7PAM (%) @1 μM. Format: cell-based. The gist of the method:
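Human α7 nAChR stable cells loaded with 4 μM Viviren (final) for 4 h at room temperature in the dark. Compounds in Hanks/20 mM HEPES/0.2% BSA were added and luminescence recorded on FDSS7000. PAM activity = RLU (Max-Min) ratio of test wells to control wells.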
For `CC(C)(F)C(=O)N[C@H]1CC[C@@H](n2cnc(-c3cc(F)cc(F)c3)c2C#N)CC1` [Example 343], the activity at 1 µM stood at 380%.
As to `CC(C)(F)C(=O)N[C@H]1CC[C@@H](n2cnc(-c3ccc(F)c(OC(F)(F)F)c3)c2C#N)CC1` [Example 350], the activity at 1 µM worked out at 670%.
In the case of `O=C(NC1CCOCC1)[C@H]1CC[C@@H](n2cnc(-c3cccc(F)c3)c2)CC1` [Example 355], the activity at 1 µM was determined as 118%.
Turning to `O=C(NC1CCOCC1)[C@H]1CC[C@@H](n2cnc(-c3ccccc3F)c2)CC1` [Example 356], the activity at 1 µM was determined as 119%.
For `O=C(NC1CCOCC1)[C@H]1CC[C@@H](n2cnc(-c3ccc(F)c(F)c3)c2)CC1` [Example 357], the activity at 1 µM was 130%.
On the same count and under the same terms, for `O=C(NC1CCOCC1)[C@H]1CC[C@@H](n2cnc(-c3cccc(F)c3F)c2)CC1` [Example 358] the value was 126%.
On to `O=C(NC1CCC(F)(F)CC1)N1[C@@H]2CC[C@H]1C[C@@H](n1cnc(-c3ccc(F)cc3F)c1)C2` [Example 384], for which the activity at 1 µM stood at 652%.
On to `O=C(NC1CCCCC1)N1[C@@H]2CC[C@H]1C[C@@H](n1cnc(-c3ccc(F)cc3F)c1)C2` [Example 385], for which the activity at 1 µM turned out to be 218%.
The same measure, in the same setting: for `O=C(NC1CCCCC1)N1[C@@H]2CC[C@H]1C[C@@H](n1cnc(-c3cccc(F)c3F)c1)C2` [Example 387] the value was 315%; for `O=C(NC1CCC(F)(F)CC1)N1[C@@H]2CC[C@H]1C[C@@H](n1cnc(-c3cc(F)ccc3F)c1)C2` [Example 388], 335%; for `O=C(NC1CCCCC1)N1[C@@H]2CC[C@H]1C[C@@H](n1cnc(-c3cc(F)ccc3F)c1)C2` [Example 389], 163%.
On to `N#Cc1c(-c2cc(F)ccc2F)ncn1[C@H]1C[C@H]2CC[C@@H](C1)N2C(=O)NC1CCC(F)(F)CC1` [Example 403], for which the activity at 1 µM was 590%.

The same experiment, now with this note: 10 μM test compound; ACh at EC20; ratio of RLU (Max-Min) to control wells; read-out: α7PAM (%) @10 μM.
Turning to `N#Cc1c(-c2ccc(F)cc2)ncn1[C@H]1CC[C@@H](NC(=O)C2CCOCC2)CC1` [Example 336], the activity at 10 µM was determined as 557%.
Consider `CC(C)(F)C(=O)N[C@H]1CC[C@@H](n2cnc(-c3ccccc3F)c2C#N)CC1` [Example 337], for which the activity at 10 µM was found to be 492%.
As to `CC(C)(F)C(=O)N[C@H]1CC[C@@H](n2cnc(-c3cccc(F)c3)c2C#N)CC1` [Example 338], the activity at 10 µM amounted to 192%.
On the same count and under the same terms, in the case of `CC(C)(F)C(=O)N[C@H]1CC[C@@H](n2cnc(-c3cccc(F)c3F)c2C#N)CC1` [Example 339] it was 351%; in that of `CC(C)(F)C(=O)N[C@H]1CC[C@@H](n2cnc(-c3ccc(F)cc3F)c2C#N)CC1` [Example 340], 377%; in that of `CC(C)(F)C(=O)N[C@H]1CC[C@@H](n2cnc(-c3cc(F)ccc3F)c2C#N)CC1` [Example 341], 233%.
As for `CC(C)(F)C(=O)N[C@H]1CC[C@@H](n2cnc(-c3ccc(F)c(F)c3)c2C#N)CC1` [Example 342], the activity at 10 µM turned out to be 369%.
Take `CC(C)(F)C(=O)N[C@H]1CC[C@@H](n2cnc(-c3ccccc3OC(F)(F)F)c2C#N)CC1` [Example 344]: the activity at 10 µM amounted to 220%.
Still for that read-out and setting: for `CC(C)(F)C(=O)N[C@H]1CC[C@@H](n2cnc(-c3cccc(OC(F)(F)F)c3)c2C#N)CC1` [Example 345] the value was 153%.
Take `CC(C)(F)C(=O)N[C@H]1CC[C@@H](n2cnc(-c3ccc(OC(F)(F)F)cc3)c2C#N)CC1` [Example 346]: the activity at 10 µM was 169%.
For `CC(C)(F)C(=O)N[C@H]1CC[C@@H](n2cnc(-c3ccc(OC(F)(F)F)cc3F)c2C#N)CC1` [Example 347], the activity at 10 µM came to 130%.
For the molecule `CC(C)(F)C(=O)N[C@H]1CC[C@@H](n2cnc(-c3ccc(OC(F)(F)F)c(F)c3)c2C#N)CC1` [Example 348], the activity at 10 µM was determined as 131%.
Still for that read-out and setting: for `CC(C)(F)C(=O)N[C@H]1CC[C@@H](n2cnc(-c3cc(OC(F)(F)F)ccc3F)c2C#N)CC1` [Example 349] the value was 290%; for `Cc1c(-c2ccc(F)cc2)ncn1[C@H]1CC[C@@H](NC(=O)C(C)(C)F)CC1` [Example 351], 540%.
As for `Cc1c(-c2ccc(F)cc2)ncn1[C@H]1CC[C@@H](NC(=O)C2CCOCC2)CC1` [Example 352], the activity at 10 µM came out at 164%.
Take `Cc1c(-c2ccc(F)cc2)ncn1[C@H]1CC[C@@H](NC(=O)C2CCC(F)(F)CC2)CC1` [Example 353]: the activity at 10 µM is 518%.
On the same count and under the same terms, for `Cc1c(-c2ccc(F)cc2)ncn1[C@H]1CC[C@@H](NC(=O)C(C)(C)C)CC1` [Example 354] the value was 230%; for `O=C(NC1CCOCC1)[C@H]1CC[C@@H](n2cnc(-c3cccc(F)c3)c2Cl)CC1` [Example 359], 581%.
In the case of `O=C(NC1CCOCC1)[C@H]1CC[C@@H](n2cnc(-c3ccccc3F)c2Cl)CC1` [Example 360], the activity at 10 µM was determined as 598%.
Regarding `O=C(NC1COC1)[C@H]1CC[C@@H](n2cnc(-c3ccc(C(F)(F)F)cc3)c2Cl)CC1` [Example 361], the activity at 10 µM worked out at 794%.
Same read-out and setting: in the case of `O=C(NC1COC1)[C@H]1CC[C@@H](n2cnc(-c3ccc(F)cc3)c2Cl)CC1` [Example 364] it was 537%; in that of `O=C(NC1CCOC1)[C@H]1CC[C@@H](n2cnc(-c3ccc(F)cc3)c2Cl)CC1` (stereo partly shown) [Example 366], 834%.
As to `O=C(NC1CCOCC1)[C@H]1CC[C@@H](n2cnc(-c3cc(F)ccc3F)c2Cl)CC1` [Example 368], the activity at 10 µM stood at 941%.
On to `O=C(NC1CCOCC1)[C@H]1CC[C@@H](n2cnc(-c3cccc(F)c3F)c2Cl)CC1` [Example 371], for which the activity at 10 µM is 962%.
In the case of `N#Cc1c(-c2ccc(F)cc2)ncn1[C@H]1CC[C@@H](C(=O)NC2CCOCC2)CC1` [Example 373], the activity at 10 µM worked out at 966%.
In the case of `N#Cc1c(-c2cc(F)ccc2F)ncn1[C@H]1CC[C@@H](C(=O)NC2CCOCC2)CC1` [Example 375], the activity at 10 µM was 457%.
For the molecule `N#Cc1c(-c2cc(F)cc(F)c2)ncn1[C@H]1CC[C@@H](C(=O)NC2CCOCC2)CC1` [Example 376], the activity at 10 µM was determined as 426%.
Regarding `N#Cc1c(-c2ccc(C(F)(F)F)cc2)ncn1[C@H]1CC[C@@H](C(=O)NC2CCOCC2)CC1` [Example 377], the activity at 10 µM was determined as 988%.
On the same count and under the same terms, for `Cc1c(-c2ccc(F)cc2)ncn1[C@H]1CC[C@@H](C(=O)NC2CCOCC2)CC1` [Example 381] the value was 377%; for `O=C(NC1CCCCC1)N1[C@@H]2CC[C@H]1C[C@@H](n1cnc(-c3ccc(F)cc3)c1)C2` [Example 382], 222%; for `O=C(NC1CCCCC1)N1[C@@H]2CC[C@H]1C[C@@H](n1cnc(-c3ccccc3)c1)C2` [Example 383], 598%.
Regarding `O=C(NC1CCC(F)(F)CC1)N1[C@@H]2CC[C@H]1C[C@@H](n1cnc(-c3cccc(F)c3F)c1)C2` [Example 386], the activity at 10 µM was 880%.
`O=C(NC1CCCCC1)N1[C@@H]2CC[C@H]1C[C@@H](n1cnc(-c3ccc(F)cc3)c1Cl)C2` [Example 390]: the activity at 10 µM was 683%.
Turning to `O=C(NC1CCC(F)(F)CC1)N1[C@@H]2CC[C@H]1C[C@@H](n1cnc(-c3ccc(F)cc3F)c1Cl)C2` [Example 394], the activity at 10 µM turned out to be 455%.
For the molecule `O=C(NC1CCOCC1)N1[C@@H]2CC[C@H]1C[C@@H](n1cnc(-c3ccc(F)cc3F)c1Cl)C2` [Example 395], the activity at 10 µM amounted to 869%.
In the case of `O=C(NC1CCC(F)(F)CC1)N1[C@@H]2CC[C@H]1C[C@@H](n1cnc(-c3cc(F)ccc3F)c1Cl)C2` [Example 396], the activity at 10 µM amounted to 585%.
On to `O=C(NC1CCOCC1)N1[C@@H]2CC[C@H]1C[C@@H](n1cnc(-c3cc(F)ccc3F)c1Cl)C2` [Example 397], for which the activity at 10 µM amounted to 522%.
On to `O=C(NC1CCC(F)(F)CC1)N1[C@@H]2CC[C@H]1C[C@@H](n1cnc(-c3cccc(F)c3F)c1Cl)C2` [Example 398], for which the activity at 10 µM worked out at 607%.
Consider `O=C(NC1CCOCC1)N1[C@@H]2CC[C@H]1C[C@@H](n1cnc(-c3cccc(F)c3F)c1Cl)C2` [Example 399], for which the activity at 10 µM came to 891%.
The same measure, in the same setting: for `N#Cc1c(-c2ccc(F)cc2F)ncn1[C@H]1C[C@H]2CC[C@@H](C1)N2C(=O)NC1CCC(F)(F)CC1` [Example 402] the value was 498%.
With `N#Cc1c(-c2cccc(F)c2F)ncn1[C@H]1C[C@H]2CC[C@@H](C1)N2C(=O)NC1CCC(F)(F)CC1` [Example 404], the activity at 10 µM worked out at 292%.
`O=C(NC1CCCCC1)N1[C@@H]2CC[C@H]1C[C@H](n1cnc(-c3ccc(F)cc3)c1)C2` [Example 405]: the activity at 10 µM came to 402%.
As for `O=C(NC1CCCCC1)N1[C@@H]2CC[C@H]1C[C@H](n1cnc(-c3ccccc3)c1)C2` [Example 406], the activity at 10 µM amounted to 629%.
Turning to `O=C(NC1CCC(F)(F)CC1)N1[C@@H]2CC[C@H]1C[C@H](n1cnc(-c3ccc(F)cc3F)c1)C2` [Example 407], the activity at 10 µM amounted to 904%.
Regarding `O=C(NC1CCCCC1)N1[C@@H]2CC[C@H]1C[C@H](n1cnc(-c3ccc(F)cc3F)c1)C2` [Example 408], the activity at 10 µM was 140%.
As for `O=C(NC1CCC(F)(F)CC1)N1[C@@H]2CC[C@H]1C[C@H](n1cnc(-c3cccc(F)c3F)c1)C2` [Example 409], the activity at 10 µM was 576%.

Still in this experiment, the particulars now being: comparison across Tables 18 to 25.
Consider `O=C(NC1CCOCC1)[C@H]1CC[C@@H](n2cnc(-c3cccc(Cl)c3)c2Cl)CC1` [Example 362], for which the “PAM activity for α7 nAChR (in words)” value is listed as “stronger PAM activity than others”.
Turning to `O=C(NC1CCOCC1)[C@H]1CC[C@@H](n2cnc(-c3ccc(Cl)cc3)c2Cl)CC1` [Example 363], the “PAM activity for α7 nAChR (in words)” value is given as “stronger PAM activity than others”.
With `N#Cc1c(-c2ccc(OC(F)(F)F)cc2)ncn1[C@H]1CC[C@@H](C(=O)NC2CCOCC2)CC1` [Example 380], the “PAM activity for α7 nAChR (in words)” value is given as “stronger PAM activity than others”.
